Consider five molecules from US6407239B1, “Aromatic esters of camptothecins and methods to treat cancers” (priority 1999, dated 2002).

For one data set, the system named is 14 human cell lines. The data set is described as follows: compounds tested against 14 human cell lines (in vitro). Type of data set: cell-based. The text has this: What is interesting from these in vitro data is that the activity of these esters is related to the substituents on their side aromatic rings. […] Thus, the difference in activity among the esters of the present invention are due to the different substituents on their side aromatic ring.

The conditions of data set [1]: cited from earlier work.
The conditions of data set [2]: animal models; cited from earlier work.
For data set [3] the following is noted: cited from earlier work. The source holds these as a separate data set.
For data set [4] the following is noted: cited from earlier work. The source holds these as a separate data set.
In a further data set the test system is mouse leukemia L 1210. The settings on record: initial test; cited from earlier work.
The conditions of data set [5]: patients, early trials; cited from earlier work.

Consider 20-O-phenyl-9-nitrocamptothecin [CZ176], for which the “activity (response of 14 human cell lines)” value with 14 human cell lines is given as “do not show any activity”. The same measure, in the same setting: next, `CC[C@@]1(OC(=O)c2ccccc2)C(=O)OCc2c1cc1n(c2=O)Cc2cc3ccccc3nc2-1` [CZ222]: “do not show any activity”.

`CC[C@@](O)(C(=O)[O-])c1cc2n(c(=O)c1CO)Cc1cc3ccccc3nc1-2.[Na+]` [CPT sodium carboxylate]: the solubility in water result in data set [1] was “water-soluble”. The “potency relative to the parent camptothecin” value in data set [2] is 10-20%. As to `CC[C@@]1(O)C(=O)OCc2c1cc1n(c2=O)Cc2cc3c([N+](=O)[O-])cccc3nc2-1` [9-nitrocamptothecin], the “present as lactone form in mice plasma” value in data set [3] was “about 50%”. In data set [4], the “found as the lactone form in human plasma” value is 5%.

For the molecule `CC[C@@]1(O)C(=O)OCc2c1cc1n(c2=O)Cc2cc3ccccc3nc2-1` [Camptothecin], the “activity against mouse leukemia L 1210” value in the data set on mouse leukemia L 1210 is “showed good activity”. In data set [5], the “anticancer activity in human clinical trials” value is given as “anticancer activity was not found” and the “toxicity in human clinical trials” value is recorded as “severe toxicity was observed”.
